Patent US8470363B2, “Antihypertensive pharmaceutical composition” (Shihuida Pharmaceuticals Group (JILIN) Ltd., priority 2010, dated 2013)

Tests used:
[1] = tested on: spontaneous hypertension SHR rats; experiment: Blood pressure depressing test in rats (tail artery systolic pressure, tail volume method); assay type: in vivo, rat; conditions: for systolic pressure at the tail artery, before administration: baseline before administration, n=10 per group; for antihypertensive effect compared with the blank model group / systolic pressure at the tail artery, 1 week after administration / systolic pressure at the tail artery, 2 weeks after administration / systolic pressure at the tail artery, 3 weeks after administration / systolic pressure at the tail artery, 4 weeks after administration: intragastric; for antihypertensive effect compared with the blank model group: doses as in Table 3; for systolic pressure at the tail artery, 1 week after administration / systolic pressure at the tail artery, 2 weeks after administration / systolic pressure at the tail artery, 3 weeks after administration / systolic pressure at the tail artery, 4 weeks after administration: levamlodipine benzenesulfonate 5 mg/kg·d, indapamide 5 mg/kg·d, compound low-dose 2.5+0.5 mg/kg·d, compound high-dose 2.5+2.5 mg/kg·d
Description: (§1) Experiment method: 50 health spontaneous hypertension SHR rats (female to male 1:1, weight 200-240 g) were equally divided into 5 groups according to the level of the hypertension (the specific grouping method is as shown in Table 3), and intragastrically administrated with the medicine. For the blood pressure of the rate, the systolic pressure at the tail artery of the rat when being wake and quite was indirectly measured by an electronic blood pressure meter through the tail volume method respectively before administration and at the end of one, two, three, and four weeks after administration. [table]

[2] = tested on: spontaneous hypertension SHR rats; experiment: Edema side effect in the SHR rat blood pressure test; assay type: in vivo; conditions: intragastric
Description: as §1, with “administration.” for “administration. [table]”

[3] = background statement, species not given; cited from earlier work

| Molecule | systolic pressure at the tail artery, before administration [1] | antihypertensive effect compared with the blank model group [1] | systolic pressure at the tail artery, 1 week after administration [1] | systolic pressure at the tail artery, 2 weeks after administration [1] | systolic pressure at the tail artery, 3 weeks after administration [1] | systolic pressure at the tail artery, 4 weeks after administration [1] | edema incidence rate ([2]; 5 mg levamlodipine benzenesulfonate/kg·d, up to 4 weeks) | occurrence of edema side effect ([2]; doses as in Table 3, up to 4 weeks) | half-life [3] |
| --- | --- | --- | --- | --- | --- | --- | --- | --- | --- |
| levamlodipine benzenesulfonate | 26.96 ± 1.29 KPa | significant antihypertensive effect | 26.79 ± 1.31 Kpa | 25.33 ± 1.26 KPa | 24.55 ± 1.28 KPa | 23.87 ± 1.28 KPa | 10% | – | – |
| CC1Cc2ccccc2N1NC(=O)c1ccc(Cl)c(S(N)(=O)=O)c1 (stereo not drawn) [Indapamide, indapamide] | 27.02 ± 1.39 KPa | significant antihypertensive effect | 26.88 ± 1.38 Kpa | 25.85 ± 1.38 KPa | 25.56 ± 1.35 KPa | 25.36 ± 1.36 KPa | – | no edema occurred | 17 h |
